{"source": "patent US20100168420A1", "about": "“Taxol Derivatives With Antitumor Activity” (priority 2007, published 2010)", "key": {"human A549 NSCLC tumors [1]": {"test_system": "human A549 NSCLC tumors", "assay": "Therapeutic effects of SHR-110008 and Taxotere against xenografts of human A549 NSCLC tumors in nude mice (Test Example 1)", "details": "for RTV X ± SD / T/C (%) / T/C (%) (weighing method) / Weight of tumors (g) x ± SD: 14th day; for T/C (%): from RTV; for T/C (%) (weighing method): from weight of tumors; for Weight of tumors (g) x ± SD: weighing method; for TV (X ± SD, mm^3) d0 / Body weight (g) d0: d0: time of the first dosage; for TV (X ± SD, mm^3) dn / Body weight (g) dn: dn: 14th day after the first dosage", "quoted_text": "Numbers of animals: 9 mice in control group, 5 mice in medication administration team.\nAnimals were adapted in animal house for 1 week and were hypodermic inoculated human A549 NSCLC tumors. After tumors grew to 100-300 mm^3, mice were randomly divided into teams of SHR-110008 and Taxotere(d0). The doses of SHR-110008 were 10 and 16 mg/kg, and the doses of Taxotere were 12 and 19 mg/kg, separately. The route of administration is intravenous injection. SHR-110008(10 mg/kg) and Taxotere (12 mg/kg) were administrated on d0, d4, d8, a total of three times. SHR-110008(16 mg/kg) and Taxotere (19 mg/kg) were administrated on d0, d7, a total of two times. The volume of tumors and weights of the mice were measured for 2-3 times per week. The calculation formula of the volume of tumor (V) is: V=1/2×a×b^2, a: length of tumor, b: width of tumor."}, "human A549 NSCLC tumors [2]": {"test_system": "human A549 NSCLC tumors", "assay": "Therapeutic effects of SHR1021-47 against xenografts of human A549 NSCLC tumors in nude mice (Test Example 2)", "assay_type": "in vivo, BALB/cA-nude mice", "details": "12 mg/kg iv, d0, d7", "description": "Animal species: BALB/cA-nude mice.\nNumbers of animals: 12 mice in control group, 6 mice in medication administration team.\nCell culture: Human A549 NSCLC tumor cells were cultured in vitro remaining on logarithmic growth phase.\nTransplantation: Take the prepared cells to inoculate subcutaneously to the nude mice.\nInoculation: Take the tumor lump to inoculate in one side of oxter on the condition of asepsis.\nGrouping and dose design: Measure the diameter of transplantation tumor by sliding caliper. After tumors grew to 100-250 mm^3, mice were randomly divided into groups of Shr1021-47 (8 mg/kg, 12 mg/kg, 16 mg/kg) and Taxotere (12 mg/kg).\nAdministration route and time: iv administration. Shr1021-47 and Taxotere were administrated on d0, d7, 2 times in all. Measure the volume of tumor and weigh the mice 2-3 times per week.\nCalculate the relative tumor volume (RTV) according to the measurements. The formula is: RTVI=Vt/V0. V0 refers to the volume of tumor on d0; Vt refers to the volume of tumor on every measurement. The index of antitumor activity is T/C(%). The formula is: T/C(%)=TRTV/CRTV×100, TRTV: RTV of treatment group, CRTV: RTV of control group."}, "[3]": {"details": "under the suitable dose schedule, conclusion in words"}, "[4]": {"details": "dn: 14th day after the first dosage"}}, "note": "Marks after values point to notes of the source that are not given here.", "data": [{"smiles": "CC(=O)O[C@@]12CO[C@@H]1C[C@H](O)[C@@]1(C)[C@@H]3OC(CN4C[C@@H]5C[C@H]4CO5)O[C@@H]3C3=C(C)[C@@H](OC(=O)[C@H](O)[C@@H](NC(=O)OC(C)(C)C)c4ccccc4)C[C@@](O)([C@@H](OC(=O)c4ccccc4)[C@H]21)C3(C)C", "note": "(stereo partly drawn) [SHR-110008]", "values": [{"measurement": "RTV X ± SD", "setting": "human A549 NSCLC tumors [1]; 10 mg/kg i.v., d0, 4, 8", "result": "10.81 ± 1.79"}, {"measurement": "T/C (%)", "setting": "human A549 NSCLC tumors [1]; 10 mg/kg i.v., d0, 4, 8", "result": "48.8* %"}, {"measurement": "T/C (%) (weighing method)", "setting": "human A549 NSCLC tumors [1]; 10 mg/kg i.v., d0, 4, 8", "result": "38.6* %"}, {"measurement": "Weight of tumors (g) x ± SD", "setting": "human A549 NSCLC tumors [1]; 10 mg/kg i.v., d0, 4, 8", "result": "1.59 ± 0.57", "unit": "g"}, {"measurement": "TV (X ± SD, mm^3) d0", "setting": "human A549 NSCLC tumors [1]; 10 mg/kg i.v., d0, 4, 8", "result": "129 ± 20", "unit": "mm^3"}, {"measurement": "TV (X ± SD, mm^3) dn", "setting": "human A549 NSCLC tumors [1]; 10 mg/kg i.v., d0, 4, 8", "result": "1383 ± 243", "unit": "mm^3"}, {"measurement": "RTV X ± SD", "setting": "human A549 NSCLC tumors [1]; 16 mg/kg i.v., d0, 7", "result": "4.41 ± 2.43"}, {"measurement": "T/C (%)", "setting": "human A549 NSCLC tumors [1]; 16 mg/kg i.v., d0, 7", "result": "19.9* %"}, {"measurement": "T/C (%) (weighing method)", "setting": "human A549 NSCLC tumors [1]; 16 mg/kg i.v., d0, 7", "result": "74.1* %"}, {"measurement": "Weight of tumors (g) x ± SD", "setting": "human A549 NSCLC tumors [1]; 16 mg/kg i.v., d0, 7", "result": "0.67 ± 0.23", "unit": "g"}, {"measurement": "TV (X ± SD, mm^3) d0", "setting": "human A549 NSCLC tumors [1]; 16 mg/kg i.v., d0, 7", "result": "143 ± 38", "unit": "mm^3"}, {"measurement": "TV (X ± SD, mm^3) dn", "setting": "human A549 NSCLC tumors [1]; 16 mg/kg i.v., d0, 7", "result": "612 ± 340", "unit": "mm^3"}, {"measurement": "therapeutic effect compared with Taxotere", "setting": "human A549 NSCLC tumors [1]; [3]", "result": "better than that of Taxotere"}, {"measurement": "toxicity compared with Taxotere", "setting": "human A549 NSCLC tumors [1]; [3]", "result": "better than that of Taxotere"}]}, {"smiles": "CC(=O)O[C@@]12CO[C@@H]1C[C@H](O)[C@@]1(C)C(=O)[C@H](O)C3=C(C)[C@@H](OC(=O)[C@H](O)[C@@H](NC(=O)OC(C)(C)C)c4ccccc4)C[C@@](O)([C@@H](OC(=O)c4ccccc4)[C@H]21)C3(C)C", "note": "[Taxotere]", "values": [{"measurement": "RTV X ± SD", "setting": "human A549 NSCLC tumors [1]; 12 mg/kg i.v., d0, 4, 8", "result": "8.65 ± 5.83"}, {"measurement": "T/C (%)", "setting": "human A549 NSCLC tumors [1]; 12 mg/kg i.v., d0, 4, 8", "result": "39.1* %"}, {"measurement": "T/C (%) (weighing method)", "setting": "human A549 NSCLC tumors [1]; 12 mg/kg i.v., d0, 4, 8", "result": "51.7* %"}, {"measurement": "Weight of tumors (g) x ± SD", "setting": "human A549 NSCLC tumors [1]; 12 mg/kg i.v., d0, 4, 8", "result": "1.25 ± 0.71", "unit": "g"}, {"measurement": "Body weight (g) d0", "setting": "human A549 NSCLC tumors [1]; 12 mg/kg i.v., d0, 4, 8", "result": 17.6, "unit": "g"}, {"measurement": "TV (X ± SD, mm^3) d0", "setting": "human A549 NSCLC tumors [1]; 12 mg/kg i.v., d0, 4, 8", "result": "140 ± 24", "unit": "mm^3"}, {"measurement": "Body weight (g) dn", "setting": "human A549 NSCLC tumors [1]; 12 mg/kg i.v., d0, 4, 8", "result": 14.1, "unit": "g"}, {"measurement": "TV (X ± SD, mm^3) dn", "setting": "human A549 NSCLC tumors [1]; 12 mg/kg i.v., d0, 4, 8", "result": "1149 ± 627", "unit": "mm^3"}, {"measurement": "RTV X ± SD", "setting": "human A549 NSCLC tumors [1]; 19 mg/kg i.v., d0, 7", "result": "7.13 ± 6.00"}, {"measurement": "T/C (%)", "setting": "human A549 NSCLC tumors [1]; 19 mg/kg i.v., d0, 7", "result": "32.2* %"}, {"measurement": "T/C (%) (weighing method)", "setting": "human A549 NSCLC tumors [1]; 19 mg/kg i.v., d0, 7", "result": "57.9* %"}, {"measurement": "Weight of tumors (g) x ± SD", "setting": "human A549 NSCLC tumors [1]; 19 mg/kg i.v., d0, 7", "result": "1.09 ± 0.73", "unit": "g"}, {"measurement": "Body weight (g) d0", "setting": "human A549 NSCLC tumors [1]; 19 mg/kg i.v., d0, 7", "result": 17.7, "unit": "g"}, {"measurement": "TV (X ± SD, mm^3) d0", "setting": "human A549 NSCLC tumors [1]; 19 mg/kg i.v., d0, 7", "result": "134 ± 19", "unit": "mm^3"}, {"measurement": "Body weight (g) dn", "setting": "human A549 NSCLC tumors [1]; 19 mg/kg i.v., d0, 7", "result": 13.0, "unit": "g"}, {"measurement": "TV (X ± SD, mm^3) dn", "setting": "human A549 NSCLC tumors [1]; 19 mg/kg i.v., d0, 7", "result": "902 ± 736", "unit": "mm^3"}, {"measurement": "RTV X ± SD", "setting": "human A549 NSCLC tumors [2]; 14th day", "result": "11.2 ± 6.0"}, {"measurement": "T/C (%)", "setting": "human A549 NSCLC tumors [2]; 14th day, TRTV/CRTV×100", "result": 78.3, "unit": "%"}, {"measurement": "Body weight (g) d0", "setting": "human A549 NSCLC tumors [2]; d0: time of the first dosage", "result": 20.7, "unit": "g"}, {"measurement": "TV (X ± SD, mm^3) d0", "setting": "human A549 NSCLC tumors [2]; d0: time of the first dosage", "result": "156 ± 20", "unit": "mm^3"}, {"measurement": "Body weight (g) dn", "setting": "human A549 NSCLC tumors [2]; [4]", "result": 15.6, "unit": "g"}, {"measurement": "TV (X ± SD, mm^3) dn", "setting": "human A549 NSCLC tumors [2]; [4]", "result": "1679 ± 749", "unit": "mm^3"}]}]}
